Patent US20070065428A1, “Early B-cell detection for selecting vaccines” (Pepscan Systems B.V., priority 2004, published 2007)
Where “and” joins values, the source holds several entries; their conditions need not be identical. Equal entries are not always repeated. Non-standard residues stand in square brackets, D forms with d. No end group written: not given here. *: point of attachment. Biotin = O=C1N[C@H]2[C@H](CS[C@H]2CCCCC(=O)*)N1; pGlu = O=C1CC[C@@H](C(=O)O)N1

Experiments:
GnRH-specific B cells [1] = experiment: Staining of specific B cells with tetramers made from C-term, N-term or middle biotinylated GnRH; format: cell-based, mice; conditions: middle- or C-terminally biotinylated GnRH (FIG. 3B)
Method: FIG. 3B: Specific B cells are recognized only by C-term tetramer. Peptide-tetrameric molecules made with different biotinylated GnRH: C-term, N-term, and middle biotinylated peptides.
Tetrameric molecules were produced by mixing equal volumes of C-biotinylated, middle biotinylated or N-biotinylated GnRH at 200 μM (Pepscan Systems) with R-phycoerythrin (PE)-labeled neutravidin at 3.3 μM (PE-NA, Molecular Probes, Eugene, Oreg.), or allophycocyanin (APC)-labeled streptavidin at 6.1 μM (APC-SA, Molecular Probes). Each mixture was incubated at 4° C. for at least 12 hours. Then, tetramers were separated from non-complexed peptide by gel filtration using Bio-Gel P-30 spin columns (Bio-Rad, Hercules, Calif.).
As a further specificity test, we produced tetramers using peptides that were N-, middle-, or C-terminally labeled.

hCG-specific B cells = experiment: Double-tetramer (PE/APC hCG-tetramer) flow cytometry of rat lymphocytes after immunization with CTP-hCG; format: in vivo; conditions: rat spleen lymphocytes, days 10 to 12 after one i.p. immunization; hCG-tetramer double-staining; one value per rat (nos. 1-3)
Method: Six eight-week-old rats were used and were treated according to the ethical guidelines of our institutions. Rats (nos. 1, 2, and 3) were immunized intraperitoneally on day 0 with 100 μg C-Terminal Peptide (CTP), which comprises amino acid position 109-145 of hCG, coupled with 300 μg KLH, in Complete Freunds Adjuvant (CFA). The accession number of hCG is p01233, the Swiss prot. entry name is CGHB_HUMAN.
Control rats (nos. 4, 5, and 6) were immunized with KLH in CFA. On days 10 to 12, the animals were sacrificed and spleens were harvested. All animal experiments were performed with permission from the local ethical committee (DEC).
Cell suspensions of splenocytes were obtained by mechanical disruption of the spleens. Lymphocytes were collected using a Ficoll gradient. The resulting single-cell suspensions were stained with hCG-tetramers at optimal dilution. Staining was conducted at 4° C. in two steps. First, cells were stained with the PE-labeled tetramer of hCG for one hour, using the empirically determined optimal concentration. Cells were then washed three times with FACS buffer. Next, cells were stained with the APC-labeled tetramer of hCG and washed again. […]
Lymphocytes were stained with hCG-tetramers. […] Only […] detected as a responder to the immunization based on specific B-cell responses.

GnRH-specific B cells [2] = experiment: Inhibition of GnRH-tetramer staining of specific B cells by pre-incubation with unlabeled GnRH; format: cell-based, mice
Method: FIG. 3A: Unlabeled GnRH or Gastrin is able to inhibit the peptide-tetrameric molecule staining of the specific B cells. […] Splenocytes were pre-incubated with unlabeled GnRH or Gastrin, followed by incubation with labeled tetramers and anti-CD19 and anti-CD3 antibodies. Three doses of unlabeled antigens were used: 2 mM, 20 μM and 0.2 μM.
Lymphocytes were preincubated with unlabeled peptide followed by incubation with labeled tetramers, CD19 and CD3e antibodies.

GnRH = conditions: cited from earlier work; for biological effect: peptide conjugated to a carrier protein (Meloen et al., 1994; Oonk et al., 1998); for immunogenicity: peptide conjugated to a carrier protein, resulting in GnRH-neutralizing antibodies (Meloen et al., 1994; Oonk et al., 1998)

With “C-term biotinylated GnRH tetrameric: C-biotinylated GnRH complexed with PE-labeled neutravidin or APC-labeled streptavidin (QHWSYGLRPG-biotin; ends and bridges not checked; also: tetramer with PE-labeled neutravidin or APC-labeled streptavidin; UniProt P01148 24-33, looked up)” the “detection of specific B cells by the tetramer” value (“detection of specific B cells” below) (GnRH-specific B cells [1]) was “able to detect the specific B cells”.
In the case of “CTP-KLH/CFA: C-Terminal Peptide, amino acid position 109-145 of hCG, coupled with KLH, in Complete Freunds Adjuvant (TCDDPRFQDSSSSKAPPPSLPSPSRLPGPSDTPILPQ; also: coupled with KLH, in Complete Freunds Adjuvant; UniProt P0DN86 129-165, looked up, fragment)”, the “Pos. B cells per 1 × 10^6 cells in Facs” value (hCG-specific B cells) is reported as 61 per 1 × 10^6 cells and 47 per 1 × 10^6 cells and 136 per 1 × 10^6 cells.
For “N-term: tetramer of N-biotinylated GnRH with PE-labeled neutravidin or APC-labeled streptavidin (Biotin-QHWSYGLRPG; ends and bridges not checked; also: tetramer with PE-labeled neutravidin or APC-labeled streptavidin; UniProt P01148 24-33, looked up)”, the “detection of specific B cells” value (GnRH-specific B cells [1]) was “Only the C-term peptide was able to detect the specific cells”.
In the case of “Unlabeled GnRH: Gonadotrophin-releasing hormone, a decapeptide, used unlabeled as competitor of tetramer staining (QHWSYGLRPG; ends and bridges not checked; UniProt P01148 24-33, looked up)”, the “inhibition of tetramer staining, dose dependence” value (GnRH-specific B cells [2]; lymphocytes preincubated with unlabeled peptide, then labeled tetramers (FIG. 3A)) is reported as “inhibited by inclusion of unlabeled peptide in a dose-dependent manner” and the “inhibition of peptide-tetramer staining of specific B cells” value (GnRH-specific B cells [2]; splenocytes pre-incubated with unlabeled antigen, higher dose of 2 mM, 20 μM and 0.2 μM) is reported as “nearly abolished”.
In the case of “dimerized form of pEHWSYkLRPGQHWSYkLRPGC [TDK]”, the biological effect (GnRH) is given as “full biological effect in all treated animals” and the immunogenicity (GnRH) is given as “highly immunogenic”.
In the case of “middle biotinylated peptides: tetramer of middle biotinylated GnRH with PE-labeled neutravidin or APC-labeled streptavidin (QHWSYGLRPG; ends and bridges not checked; also: middle biotinylated, tetramer with PE-labeled neutravidin or APC-labeled streptavidin; UniProt P01148 24-33, looked up)”, the “detection of specific B cells” value (GnRH-specific B cells [1]) is reported as “Only the C-term peptide was able to detect the specific cells”.
In the case of “pEHWSYGLRPGQHWSYGLRPGC ([pGlu]HWSYGLRPGQHWSYGLRPGC) [GnRH tandem]”, the biological effect (GnRH) is listed as “full biological effect in all treated animals” and the immunogenicity (GnRH) is listed as “highly immunogenic”.
